Activity calls are given as the source filed them. The rule behind the calls is not given here.
Test system: CCRIS mutagenicity, Ames/micronucleus/aberration tests
Experiment: CCRIS mutagenicity studies

Measured: mutagenic call

CCCl
active: Test System: AMES SALMONELLA TYPHIMURIUM, Strain/Indicator: TA100, Metabolic Activation: NONE, Method: GAS EXPOSURE active; positive | Test System: AMES SALMONELLA TYPHIMURIUM, Strain/Indicator: TA100, Metabolic Activation: RAT LIVER S-9, PHENOBARBITAL AND BETA-NAPHTHOFLAVONE, Method: GAS EXPOSURE active; positive | Test System: AMES SALMONELLA TYPHIMURIUM, Strain/Indicator: TA100, Metabolic Activation: RAT, LIVER, S-9, PHENOBARBITAL AND 5,6-BENZOFLAVONE, Method: GAS EXPOSURE active; positive | Test System: AMES SALMONELLA TYPHIMURIUM, Strain/Indicator: TA1535, Metabolic Activation: HAMSTER, LIVER, S-9, AROCLOR 1254 (30%), Method: DESICCATOR active; positive | Test System: AMES SALMONELLA TYPHIMURIUM, Strain/Indicator: TA1535, Metabolic Activation: NONE, Method: DESICCATOR active; positive | Test System: AMES SALMONELLA TYPHIMURIUM, Strain/Indicator: TA1535, Metabolic Activation: NONE, Method: GAS EXPOSURE active; positive | Test System: AMES SALMONELLA TYPHIMURIUM, Strain/Indicator: TA1535, Metabolic Activation: RAT LIVER S-9, PHENOBARBITAL AND BETA-NAPHTHOFLAVONE, Method: GAS EXPOSURE active; positive | Test System: AMES SALMONELLA TYPHIMURIUM, Strain/Indicator: TA1535, Metabolic Activation: RAT, LIVER, S-9, AROCLOR 1254 (30%), Method: DESICCATOR active; positive | Test System: AMES SALMONELLA TYPHIMURIUM, Strain/Indicator: TA1535, Metabolic Activation: RAT, LIVER, S-9, PHENOBARBITAL AND 5,6-BENZOFLAVONE, Method: GAS EXPOSURE active; positive | Test System: CHINESE HAMSTER OVARY, Strain/Indicator: CHO-K1 (HPRT)/6-THIOGUANINE, Metabolic Activation: NONE active; positive | Test System: CHINESE HAMSTER OVARY, Strain/Indicator: CHO-K1 (HPRT)/6-THIOGUANINE, Metabolic Activation: RAT, LIVER, S-9, AROCLOR 1254 active; positive | Test System: E. COLI, Strain/Indicator: WP2 UVRA, Metabolic Activation: NONE, Method: GAS EXPOSURE active; positive | Test System: E. COLI, Strain/Indicator: WP2 UVRA, Metabolic Activation: RAT, LIVER, S-9, PHENOBARBITAL AND 5,6-BENZOFLAVONE, Method: GAS EXPOSURE active; positive | Test System: E.COLI, Strain/Indicator: WP2UVRA, Metabolic Activation: NONE, Method: GAS EXPOSURE active; positive | Test System: E.COLI, Strain/Indicator: WP2UVRA, Metabolic Activation: RAT LIVER S-9, PHENOBARBITAL AND BETA-NAPHTHOFLAVONE, Method: GAS EXPOSURE active; positive
inactive: Test System: AMES SALMONELLA TYPHIMURIUM, Strain/Indicator: TA98, Metabolic Activation: NONE, Method: DESICCATOR inactive; negative | Test System: AMES SALMONELLA TYPHIMURIUM, Strain/Indicator: TA98, Metabolic Activation: NONE, Method: GAS EXPOSURE inactive; negative | Test System: AMES SALMONELLA TYPHIMURIUM, Strain/Indicator: TA98, Metabolic Activation: RAT LIVER S-9, PHENOBARBITAL AND BETA-NAPHTHOFLAVONE, Method: GAS EXPOSURE inactive; negative | Test System: AMES SALMONELLA TYPHIMURIUM, Strain/Indicator: TA98, Metabolic Activation: RAT, LIVER, S-9, AROCLOR 1254 (30%), Method: DESICCATOR inactive; negative | Test System: AMES SALMONELLA TYPHIMURIUM, Strain/Indicator: TA98, Metabolic Activation: RAT, LIVER, S-9, PHENOBARBITAL AND 5,6-BENZOFLAVONE, Method: GAS EXPOSURE inactive; negative | Test System: AMES SALMONELLA TYPHIMURIUM, Strain/Indicator: TA100, Metabolic Activation: HAMSTER, LIVER, S-9, AROCLOR 1254 (30%), Method: DESICCATOR inactive; negative | Test System: AMES SALMONELLA TYPHIMURIUM, Strain/Indicator: TA100, Metabolic Activation: NONE, Method: DESICCATOR inactive; negative | Test System: AMES SALMONELLA TYPHIMURIUM, Strain/Indicator: TA100, Metabolic Activation: RAT, LIVER, S-9, PCB, Method: GAS EXPOSURE inactive; negative | Test System: AMES SALMONELLA TYPHIMURIUM, Strain/Indicator: TA1537, Metabolic Activation: NONE, Method: GAS EXPOSURE inactive; negative | Test System: AMES SALMONELLA TYPHIMURIUM, Strain/Indicator: TA1537, Metabolic Activation: RAT LIVER S-9, PHENOBARBITAL AND BETA-NAPHTHOFLAVONE, Method: GAS EXPOSURE inactive; negative | Test System: AMES SALMONELLA TYPHIMURIUM, Strain/Indicator: TA1537, Metabolic Activation: RAT, LIVER, S-9, PHENOBARBITAL AND 5,6-BENZOFLAVONE, Method: GAS EXPOSURE inactive; negative | Test System: E. COLI, Strain/Indicator: WP2 UVRA (PKM101), Metabolic Activation: RAT, LIVER, S-9, PCB, Method: GAS EXPOSURE inactive; negative | Test System: E. COLI, Strain/Indicator: WP2 UVRA, Metabolic Activation: RAT, LIVER, S-9, PCB, Method: GAS EXPOSURE inactive; negative | Test System: UDS MOUSE HEPATOCYTES, Strain/Indicator: THY INCORP, Metabolic Activation: NONE, Method: IN VIVO-IN VITRO inactive; negative

O=[N+]([O-])C1=Cc2c3c1cccc3cc1ccc3ccccc3c21
inactive: Test System: AMES SALMONELLA TYPHIMURIUM, Strain/Indicator: TA100, Metabolic Activation: NONE, Method: STANDARD PLATE inactive; negative | Test System: AMES SALMONELLA TYPHIMURIUM, Strain/Indicator: TA100, Metabolic Activation: RAT, LIVER, S-9, AROCLOR 1254, Method: STANDARD PLATE inactive; negative | Test System: AMES SALMONELLA TYPHIMURIUM, Strain/Indicator: TA1535, Metabolic Activation: NONE, Method: STANDARD PLATE inactive; negative | Test System: AMES SALMONELLA TYPHIMURIUM, Strain/Indicator: TA1535, Metabolic Activation: RAT, LIVER, S-9, AROCLOR 1254, Method: STANDARD PLATE inactive; negative | Test System: AMES SALMONELLA TYPHIMURIUM, Strain/Indicator: TA1537, Metabolic Activation: RAT, LIVER, S-9, AROCLOR 1254, Method: STANDARD PLATE inactive; negative
active: Test System: AMES SALMONELLA TYPHIMURIUM, Strain/Indicator: TA98, Metabolic Activation: NONE, Method: STANDARD PLATE active; positive | Test System: AMES SALMONELLA TYPHIMURIUM, Strain/Indicator: TA98, Metabolic Activation: RAT, LIVER, S-9, AROCLOR 1254, Method: STANDARD PLATE active; positive | Test System: AMES SALMONELLA TYPHIMURIUM, Strain/Indicator: TA1537, Metabolic Activation: NONE, Method: STANDARD PLATE active; positive | Test System: AMES SALMONELLA TYPHIMURIUM, Strain/Indicator: TA1538, Metabolic Activation: NONE, Method: STANDARD PLATE active; positive | Test System: AMES SALMONELLA TYPHIMURIUM, Strain/Indicator: TA1538, Metabolic Activation: RAT, LIVER, S-9, AROCLOR 1254, Method: STANDARD PLATE active; positive
